Holding throughout (type): in vivo, BDF1 mice
In assay [1] the test system is lymphocytic leukemia L1210. Nature of the assay: Lymphocytic Leukemia L1210 Test. The text has this: (§1) Certain in vivo testing systems and protocols have been developed by the National Cancer Institute for testing compounds to determine their suitability as anti-neoplastic agents. These have been reported in "Cancer Chemotherapy Reports", Part III, Vol. 3, No. 2 (1972), Geran, et al. These protocols have established standardized screening tests which are generally followed in the field of testing for antitumor agents. Of these systems, lymphocytic leukemia P388, melanotic melanoma B16, L1210 leukemia and colon 26 adenocarcinoma are particularly significant to the present invention. These neoplasms are utilized for testing as transplantable tumors in mice. Generally, significant anti-tumor activity, shown in these protocols by a percentage increase of mean survival times of the treated animals (T) over the control animals (C), is indicative of similar results in human leukemias and solid tumors.
The animals used were BDF1 mice, all of one sex, weighing a minimum of 17 g and all within a 3 g weight range. There were 6 mice in each test group and 18 in control groups. The tumor transplant was by intraperitoneal injection of 0.5 ml of lymphocytic leukemia L1210 at a concentration of 10^5 cells per mouse. LL-E33288 antibiotics were tested in the L1210 system both as the individual β1-Br component and as a complex of all components (Bromo-complex). The test compounds were administered on days 1, 5 and 9 or days 1 through 9 (relative to tumor inoculation) at various doses. The mice were weighed and survivors recorded on a regular basis for 30 days. The median survival time and the ratio of survival time for treated (T)/control (C) animals were calculated. The positive control compound was 1,4-dihydroxy-5,8-bis[[2-(2-hydroxyethylamino)ethyl]amino]anthraquinone dihydrochloride or Cisplatin given intraperitoneally at the indicated dose. If T/C X 100 (%) is 125 or over, the tested compound is considered to have significant anti-tumor activity.
(§2) In the same manner, the following iodo-components were tested for antineoplastic activity.

Assay [2] deals with lymphocytic leukemia P388. Nature of the assay: Lymphocytic Leukemia P388 Test. Conditions: Table IX.
From the text: as §1
The animals used were BDF1 mice, all of one sex, weighing a minimum of 17 g and all within a 3 g weight range. There were 5 or 6 mice per test group. The tumor transplant was by intraperitoneal injection of 0.5 ml of dilute ascitic fluid containing 10^6 cells of lymphocytic leukemia P388. LL-E33288 antibiotics were tested in the P388 system both as the individual β1-Br and […] components and as a complex of all components (Bromo-complex). The test compounds were administered intrapertioneally at a volume of 0.5 ml in 0.2% Klucel in normal saline on days 1, 5 and 9 (relative to tumor inoculation) at the indicated doses. The mice were weighed and the survivors recorded on a regular basis for 30 days. The median survival time and the ratio of survival time for treated (T)/control (C) animals were calculated. The positive control compound was Cisplatin given as an intraperitioneal injection in 0.5 ml of 0.2% Klucel on days 1, 5 and 9 at the indicated doses.
If T/C X 100 (%) is 125 or over, the tested compound is considered to have significant anti-tumor activity.
as §2

Another assay has as its system melanotic melanoma B16. Briefly: Melanotic Melanoma B16 Test.
From the text: as §1
The animals used were BDF1 mice, all of the same sex, weighing a minimum of 17 g and all within a 3 g weight range. There are normally 6 animals per test group. A 1 g portion of melanotic melanoma β16 tumor was homogenized in 10 ml of cold balanced salt solution and a 0.5 ml aliquot of the homogenate was implanted intraperitoneally into each of the test mice. LL-E33288 antibiotics were tested in the β16 system both as the individual β1-Br and γ1-Br components and as a complex of all components (Bromo-complex). The test compounds were administered intraperitioneally on days 1 through 9 (relative to tumor inoculation) at various doses. The mice were weighed and survivors recorded on a regular basis for 60 days. The median survival time and the ratio of survival time for treated (T)/control (C) animals were calculated. The positive control compounds were Cisplatin or Adriamycin. The results of this test appear in Table V. If T/C X 100 (%) is 125 or over, the tested compound is considered to have significant anti-tumor activity.
as §2

[3] abbreviates: Table VI, days 1, 5 and 9 or days 1 through 9, dose 0.4 mg/kg, control 16.7 days.
Setting [4] is: Table VI, days 1, 5 and 9 or days 1 through 9, dose 0.8 mg/kg, control 16.7 days.
The mark [5] stands for this setting: Table VI, i.p., dose 1.6 mg/kg, control 16.7 days.
Setting [6] is: Table XI, dose 0.4 mg/kg, control 9 days.
Where [7] appears, read: Table XI, dose 0.8 mg/kg, control 9 days.
Where [8] appears, read: Table XI, dose 1.6 mg/kg, control 9 days.
The mark [9] stands for this setting: Table XI, dose 3.2 mg/kg, control 9 days.
[10] abbreviates: Test 1, dose 1.6 mg/kg, control 13 days.
Where [11] appears, read: Test 2, dose 0.8 mg/kg, control 11 days.
[12] abbreviates: Test 2, dose 1.6 mg/kg, control 11 days.
Where [13] appears, read: Table V, dose 0.4 mg/kg, control 19 days, survivors recorded for 60 days.
Setting [14] is: Table V, dose 0.8 mg/kg, control 19 days, survivors recorded for 60 days.
The mark [15] stands for this setting: Table X, dose 0.2 mg/kg, control value not given.
The mark [16] stands for this setting: Table X, dose 0.4 mg/kg, control value not given.
Setting [17] is: Table X, dose 0.8 mg/kg, control value not given.

Data on two molecules can be found in patent publication EP0182152B1, “Antitumor antibiotics (LL-E33288 Complex)” (AMERICAN CYANAMID COMPANY, priority 1984, dated 1986).

As for `Cl.Cl.O=C1c2c(O)ccc(O)c2C(=O)c2c(NCCNCCO)ccc(NCCNCCO)c21` [Novantrone®, 1,4-dihydroxy-5,8-bis[[2-(2-hydroxyethylamino)ethyl]amino]anthraquinone dihydrochloride], the “Median Survival” value turned out to be 30 days in assay [1] (setting [3]); 30 days in assay [1] (setting [4]); 30 days in assay [1] (setting [5]); 11 days in assay [1] (setting [6]); 12 days in assay [1] (setting [7]); 11.5 days in assay [1] (setting [8]). The “Median Survival” value in assay [1] (setting [9]) stood at 15 days; in assay [2] (setting [10]), 22.5 days; in assay [2] (setting [11]), 16 days; in assay [2] (setting [12]), 19 days. Moreover, the “T/C x 100” value in assay [1] (setting [3]) is given as 180%; in assay [1] (setting [4]), 180%; in assay [1] (setting [5]), 180%; in assay [1] (setting [6]), 122%; in assay [1] (setting [7]), 133%; in assay [1] (setting [8]) it was 128%. Further, the “T/C x 100” value came to 167% in assay [1] (setting [9]), 173% in assay [2] (setting [10]), 145% in assay [2] (setting [11]) and 173% in assay [2] (setting [12]).
`COc1cccc2c1C(=O)c1c(O)c3c(c(O)c1C2=O)C[C@@](O)(C(=O)CO)C[C@@H]3O[C@H]1C[C@H](N)[C@H](O)[C@H](C)O1` [Adriamycin]: the “Median Survival” value with melanotic melanoma B16 (setting [13]) is more than 60 days; in the assay on melanotic melanoma B16 (setting [14]) it was more than 60 days; in the assay with melanotic melanoma B16 (setting [15]), 34.5 days; in the assay on melanotic melanoma B16 (setting [16]) it was 40 days; with melanotic melanoma B16 (setting [17]), 48 days. In addition, the “T/C x 100” value in the assay with melanotic melanoma B16 (setting [13]) is recorded as more than 316%; in the assay on melanotic melanoma B16 (setting [14]), more than 316%; in the assay with melanotic melanoma B16 (setting [15]), 203%; in the assay with melanotic melanoma B16 (setting [16]), 235%; in the assay with melanotic melanoma B16 (setting [17]), 282%.
